The source of these data is patent US10150760B2, “Compounds for use in preparing heterocyclic triazole agonists of the APJ receptor” (AMGEN INC., priority 2016, dated 2018).

Chain of human APJ receptor (P35414 whole entry): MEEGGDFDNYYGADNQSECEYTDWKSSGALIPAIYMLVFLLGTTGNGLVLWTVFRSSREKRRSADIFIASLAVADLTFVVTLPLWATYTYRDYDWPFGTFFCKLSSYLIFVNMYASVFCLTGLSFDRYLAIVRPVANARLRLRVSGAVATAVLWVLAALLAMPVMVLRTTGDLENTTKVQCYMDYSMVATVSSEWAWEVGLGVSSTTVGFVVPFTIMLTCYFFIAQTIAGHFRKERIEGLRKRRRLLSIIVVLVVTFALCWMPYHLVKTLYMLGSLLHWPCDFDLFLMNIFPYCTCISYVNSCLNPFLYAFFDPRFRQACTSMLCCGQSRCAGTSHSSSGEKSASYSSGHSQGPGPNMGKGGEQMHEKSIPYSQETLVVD

This assay addresses human APJ receptor (Homo sapiens (Human), UniProt P35414). The assay is described as follows: [35S]GTPγS binding assay on membranes from CHO cells stably expressing human APJ receptor. The class given is biochemical. Conditions: read-out: Activity hAPJ SPA EC50 IP. In a few lines:
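Membranes from CHO cells stably expressing human APJ incubated with ligand, 0.2 nM [35S]GTPγS and WGA SPA beads in HEPES pH 7.5 with 5 mM MgCl2, 200 mM NaCl, 3 μM GDP, 90 min at RT. Nonspecific binding defined with 100 μM GTPγS; EC50 by non-linear regression.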
As for “(1R,2S)-1-(5-chloro-2-pyrimidinyl)-N-(4-(1,3-dimethoxy-2-propanyl)-5-((2S,5S)-5-methyltetrahydro-2-furanyl)-4H-1,2,4-triazol-3-yl)-1-methoxy-2-propanesulfonamide or (1R,2S)-1-(5-chloro-2-pyrimidinyl)-N-(4-(1,3-dimethoxy-2-propanyl)-5-((2R,5R)-5-methyltetrahydro-2-furanyl)-4H-1,2,4-triazol-3-yl)-1-methoxy-2-propanesulfonamide [Example 253.0]”, the concentration giving a half-maximal response (EC50) came to 6.3 nM.

Take “(1R,2S)-1-(5-chloro-2-pyrimidinyl)-N-(4-(1,3-dimethoxy-2-propanyl)-5-((3S)-tetrahydro-3-furanyl)-4H-1,2,4-triazol-3-yl)-1-methoxy-2-propanesulfonamide or (1R,2S)-1-(5-chloro-2-pyrimidinyl)-N-(4-(1,3-dimethoxy-2-propanyl)-5-((3R)-tetrahydro-3-furanyl)-4H-1,2,4-triazol-3-yl)-1-methoxy-2-propanesulfonamide [Example 305.0]”: the EC50 is 740 nM.

As to “(1R,2S)-1-(5-chloro-2-pyrimidinyl)-N-(4-(1,3-dimethoxy-2-propanyl)-5-((3S)-tetrahydro-3-furanyl)-4H-1,2,4-triazol-3-yl)-1-methoxy-2-propanesulfonamide or (1R,2S)-1-(5-chloro-2-pyrimidinyl)-N-(4-(1,3-dimethoxy-2-propanyl)-5-((3R)-tetrahydro-3-furanyl)-4H-1,2,4-triazol-3-yl)-1-methoxy-2-propanesulfonamide [Example 306.0]”, the EC50 stood at 900 nM.

For the substance “(1R,2S)-1-(5-chloropyridin-2-yl)-N-(4-(2,6-dimethoxyphenyl)-5-((R)-1,4-dioxan-2-yl)-4H-1,2,4-triazol-3-yl)-1-methoxypropane-2-sulfonamide or (1R,2S)-1-(5-chloropyridin-2-yl)-N-(4-(2,6-dimethoxyphenyl)-5-((S)-1,4-dioxan-2-yl)-4H-1,2,4-triazol-3-yl)-1-methoxypropane-2-sulfonamide [Example 264.0]”, the 50% effective concentration (EC50) was 1.2 nM.

In the case of “(1R,2S)-1-(5-chloropyrimidin-2-yl)-1-methoxy-N-(4-(1-methylcyclopropyl)-5-((2S,5S)-5-methyltetrahydrofuran-2-yl)-4H-1,2,4-triazol-3-yl)propane-2-sulfonamide or (1R,2S)-1-(5-chloropyrimidin-2-yl)-1-methoxy-N-(4-(1-methylcyclopropyl)-5-((2R,5R)-5-methyltetrahydrofuran-2-yl)-4H-1,2,4-triazol-3-yl)propane-2-sulfonamide [Example 199.0]”, the EC50 came to 2.7 nM.

With “(1R,2S)-1-(5-chloropyrimidin-2-yl)-1-methoxy-N-(4-(1-methylcyclopropyl)-5-((2S,5S)-5-methyltetrahydrofuran-2-yl)-4H-1,2,4-triazol-3-yl)propane-2-sulfonamide or (1R,2S)-1-(5-chloropyrimidin-2-yl)-1-methoxy-N-(4-(1-methylcyclopropyl)-5-((2R,5R)-5-methyltetrahydrofuran-2-yl)-4H-1,2,4-triazol-3-yl)propane-2-sulfonamide [Example 200.0]”, the EC50 came to 290 nM.

For “(1R,2S)-1-(5-chloropyrimidin-2-yl)-1-methoxy-N-(5-((2S,5S)-5-methyltetrahydrofuran-2-yl)-4-(tetrahydro-2H-pyran-4-yl)-4H-1,2,4-triazol-3-yl)propane-2-sulfonamide or (1R,2S)-1-(5-chloropyrimidin-2-yl)-1-methoxy-N-(5-((2R,5R)-5-methyltetrahydrofuran-2-yl)-4-(tetrahydro-2H-pyran-4-yl)-4H-1,2,4-triazol-3-yl)propane-2-sulfonamide [Example 226.0]”, the half-maximal effective concentration (EC50) stood at 1400 nM.

With “(1R,2S)-1-(5-chloropyrimidin-2-yl)-1-methoxy-N-(5-((2S,5S)-5-methyltetrahydrofuran-2-yl)-4-tetrahydro-2H-pyran-4-yl)-4H-1,2,4-triazol-3-yl)propane-2-sulfonamide or (1R,2S)-1-(5-chloropyrimidin-2-yl)-1-methoxy-N-(5-((2R,5R)-5-methyltetrahydrofuran-2-yl)-4-(tetrahydro-2H-pyran-4-yl)-4H-1,2,4-triazol-3-yl)propane-2-sulfonamide [Example 225.0]”, the EC50 was determined as 70 nM.

Take “(1R,2S)-1-(5-chloropyrimidin-2-yl)-N-(4-(2,6-dimethoxyphenyl)-5-((3aR,6aR)-hexahydro-3aH-cyclopenta[b]furan-3a-yl)-4H-1,2,4-triazol-3-yl)-1-methoxypropane-2-sulfonamide or (1R,2S)-1-(5-chloropyrimidin-2-yl)-N-(4-(2,6-dimethoxyphenyl)-5-((3aS,6aS)-hexahydro-3aH-cyclopenta[b]furan-3a-yl)-4H-1,2,4-triazol-3-yl)-1-methoxypropane-2-sulfonamide [Example 346.0]”: the EC50 was determined as 780 nM.

On to “(1R,2S)-1-(5-chloropyrimidin-2-yl)-N-(4-(2,6-dimethoxyphenyl)-5-((3aR,6aR)-hexahydro-3aH-cyclopenta[b]furan-3a-yl)-4H-1,2,4-triazol-3-yl)-1-methoxypropane-2-sulfonamide or (1R,2S)-1-(5-chloropyrimidin-2-yl)-N-(4-(2,6-dimethoxyphenyl)-5-((3aS,6aS)-hexahydro-3aH-cyclopenta[b]furan-3a-yl)-4H-1,2,4-triazol-3-yl)-1-methoxypropane-2-sulfonamide [Example 347.0]”, for which the 50% effective concentration (EC50) came out at 360 nM.

On to “(1R,2S)-1-(5-chloropyrimidin-2-yl)-N-(4-(2,6-dimethoxyphenyl)-5-((R)-1,1-dioxidotetrahydrothiophen-3-yl)-4H-1,2,4-triazol-3-yl)-1-methoxypropane-2-sulfonamide or (1R,2S)-1-(5-chloropyrimidin-2-yl)-N-(4-(2,6-dimethoxyphenyl)-5-((S)-1,1-dioxidotetrahydrothiophen-3-yl)-4H-1,2,4-triazol-3-yl)-1-methoxypropane-2-sulfonamide [Example 187.0]”, for which the concentration giving a half-maximal response (EC50) was found to be 350 nM.

On to “(1R,2S)-1-(5-chloropyrimidin-2-yl)-N-(4-(2,6-dimethoxyphenyl)-5-((R)-1,1-dioxidotetrahydrothiophen-3-yl)-4H-1,2,4-triazol-3-yl)-1-methoxypropane-2-sulfonamide or (1R,2S)-1-(5-chloropyrimidin-2-yl)-N-(4-(2,6-dimethoxyphenyl)-5-((S)-1,1-dioxidotetrahydrothiophen-3-yl)-4H-1,2,4-triazol-3-yl)-1-methoxypropane-2-sulfonamide [Example 188.0]”, for which the EC50 is 220 nM.

With “(1R,2S)-1-(5-chloropyrimidin-2-yl)-N-(4-(2,6-dimethoxyphenyl)-5-((R)-1,4-dioxan-2-yl)-4H-1,2,4-triazol-3-yl)-1-methoxypropane-2-sulfonamide or (1R,2S)-1-(5-chloropyrimidin-2-yl)-N-(4-(2,6-dimethoxyphenyl)-5-((S)-1,4-dioxan-2-yl)-4H-1,2,4-triazol-3-yl)-1-methoxypropane-2-sulfonamide [Example 197.0]”, the EC50 is 1 nM.

“(1R,2S)-1-(5-chloropyrimidin-2-yl)-N-(4-(4,6-dimethoxypyrimidin-5-yl)-5-((R)-5,5-dimethyltetrahydrofuran-3-yl)-4H-1,2,4-triazol-3-yl)-1-methoxypropane-2-sulfonamide or (1R,2S)-1-(5-chloropyrimidin-2-yl)-N-(4-(4,6-dimethoxypyrimidin-5-yl)-5-((S)-5,5-dimethyltetrahydrofuran-3-yl)-4H-1,2,4-triazol-3-yl)-1-methoxypropane-2-sulfonamide [Example 315.0]”: the EC50 is 85 nM.

For “(1R,2S)-1-(5-chloropyrimidin-2-yl)-N-(4-(4,6-dimethoxypyrimidin-5-yl)-5-((R)-5,5-dimethyltetrahydrofuran-3-yl)-4H-1,2,4-triazol-3-yl)-1-methoxypropane-2-sulfonamide or (1R,2S)-1-(5-chloropyrimidin-2-yl)-N-(4-(4,6-dimethoxypyrimidin-5-yl)-5-((S)-5,5-dimethyltetrahydrofuran-3-yl)-4H-1,2,4-triazol-3-yl)-1-methoxypropane-2-sulfonamide [Example 316.0]”, the EC50 stood at 26 nM.

Regarding “(1R,2S)-1-(5-chloropyrimidin-2-yl)-N-(5-((R)-2,3-dihydrobenzo[b][1,4]dioxin-2-yl)-4-(2,6-dimethoxyphenyl)-4H-1,2,4-triazol-3-yl)-1-methoxypropane-2-sulfonamide or (1R,2S)-1-(5-chloropyrimidin-2-yl)-N-(5-((S)-2,3-dihydrobenzo[b][1,4]dioxin-2-yl)-4-(2,6-dimethoxyphenyl)-4H-1,2,4-triazol-3-yl)-1-methoxypropane-2-sulfonamide [Example 258.0]”, the EC50 is 33 nM.

“(1R,2S)-1-(5-chloropyrimidin-2-yl)-N-(5-((R)-2,3-dihydrobenzo[b][1,4]dioxin-2-yl)-4-(2,6-dimethoxyphenyl)-4H-1,2,4-triazol-3-yl)-1-methoxypropane-2-sulfonamide or (1R,2S)-1-(5-chloropyrimidin-2-yl)-N-(5-((S)-2,3-dihydrobenzo[b][1,4]dioxin-2-yl)-4-(2,6-dimethoxyphenyl)-4H-1,2,4-triazol-3-yl)-1-methoxypropane-2-sulfonamide [Example 259.0]”: the half-maximal effective concentration (EC50) was 88 nM.

In the case of “(1R,2S)-1-(5-chloropyrimidin-2-yl)-N-(5-((S)-5,5-dimethyltetrahydrofuran-2-yl)-4-(tetrahydro-2H-pyran-4-yl)-4H-1,2,4-triazol-3-yl)-1-methoxypropane-2-sulfonamide or (1R,2S)-1-(5-chloropyrimidin-2-yl)-N-(5-((R)-5,5-dimethyltetrahydrofuran-2-yl)-4-(tetrahydro-2H-pyran-2-yl)-4H-1,2,4-triazol-3-yl)-1-methoxypropane-2-sulfonamide [Example 221.0]”, the concentration giving a half-maximal response (EC50) was found to be 560 nM.

One may read the EC50 as the concentration needed to bring the measured effect to its halfway point.
